Measured values published in patent US5256533A, “As a probe of serotonin uptake harmaline” (Board of Regents, The University of Texas System, priority 1990, dated 1993).
“Also recorded” adds a separate entry of the source.

Columns and labels:
[1] = target: [^3 H]Serotonin binding sites of brain tissue; assay: Inhibition of [3H]serotonin binding by brain homogenates; conditions: concentration causing 50% inhibition of isotope binding
Protocol: (§1) TABLE 1 illustrates the general inhibitory effects of beta carbolines on neurotransmitter binding by brain tissue. Samples of brain tissue rich in the respective neurotransmitter binding sites were obtained, homogenized, washed and incubated with a series of beta carboline concentrations. After subsequent additions of tritiated neurotransmitters, the extent of beta carboline inhibition of labeled neurotransmitter binding was measured. As shown, a variety of beta carbolines were effective antagonists of several neurotransmitters. […] These beta carbolines may be used as vital stains for the respective neurotransmitter systems, accumulating in living tissue.

[2] = target: [^3 H]Choline binding sites of brain tissue; assay: Inhibition of [3H]choline binding by brain homogenates; conditions: concentration causing 50% inhibition of isotope binding
Protocol: (§2) Samples of brain tissue rich in the respective neurotransmitter binding sites were obtained, homogenized, washed and incubated with a series of beta carboline concentrations. After subsequent additions of tritiated neurotransmitters, the extent of beta carboline inhibition of labeled neurotransmitter binding was measured.

[3] = target: [^3 H]GABA binding sites of brain tissue; assay: Inhibition of [3H]GABA binding by brain homogenates; conditions: concentration causing 50% inhibition of isotope binding
Protocol: as §2

[4] = target: [^3 h]Noradrenaline binding sites of brain tissue; assay: Inhibition of [3H]noradrenaline binding by brain homogenates; conditions: concentration causing 50% inhibition of isotope binding
Protocol: as §2

[5] = target: [^14 C]Dopamine binding sites of brain tissue; assay: Inhibition of [14C]dopamine binding by brain homogenates; conditions: read-out: IC50, inhibition binding, concentration causing 50% inhibition of isotope binding
Protocol: as §1, with “After subsequent additions of tritiated neurotransmitters, the extent of beta carboline inhibition of labeled neurotransmitter binding was measured.” left out

[6] = tested on: noradrenergic system of blood cells and platelets; assay: THN accumulation in blood cells and platelets, noradrenaline system; assay type: cell-based; conditions: imipramine 100 μM and serotonin 100 μM pretreatment; extrapolated from literature
Protocol: The analysis of a noradrenaline system using the beta carboline tetrahydronorharman (THN) could be tested using the method described with blood cells and platelets. Cells and platelets would be collected, then pre-treated with solutions to block sites of the serotonin system in order to limit interactions to that of the noradrenergic system. Cells would be first incubated for 10 minutes with the serotonin uptake blocker, imipramine at 100 μM, following which serotonin itself was added to make a concentration of 100 μM for an additional 5 minute incubation. The cells and platelets thusly prepared would then be incubated with the beta carboline, THN, at concentrations of 10 nM to 100 μM. […] These values were obtained via extrapolation from pertinent literature on THN and noradrenaline.

[7] = tested on: lymphocytes and platelets; assay: Harmaline accumulation in blood cells by ultraviolet flow cytometry; assay type: cell-based, human
Protocol: (§3) For this experiment, the beta carboline, harmaline was used. […] Prior to the use of a beta carboline to analyze blood tissues, blood was collected, then leukocytes and platelets were gradient separated utilizing a hypaque/centrifugation technique. The leukocytes were then re-suspended in culture media (phosphate buffered saline (PBS) with bovine serum albumin) at a concentration of […]. The cells and platelets may then be incubated with a solution containing antagonist(s) or blockers of undesired neurotransmitter interactions. With harmaline, there is some amount of cross reactivity with the alpha-2 (noradrenaline) receptor. As the blood cells and platelets both have alpha-2 receptors, the noradrenaline antagonist, yohimbine was chosen to block undesired reactivity with these sites. Cells were incubated for 10 minutes with a 100 μM solution of yohimbine. The cells were then divided into numerous samples which were each exposed to increasing concentrations of harmaline (1 μM to 100 μM concentrations were used) for a period of five minutes each. […] The labelled cells were then analyzed using both spectrophotofluorometry and ultraviolet flow cytometry. With the flow cytometry-analyzed tissue an experiment to detect the presence of imipramine, the serotonin uptake system antagonist, was implemented.
With flow cytometry, a sample of cells was treated prior to analysis, as above. Fluorescence of individual cells was then analyzed sequentially as they passed through detection beams of light in a micro-stream of fluid. Using this method, literally emissions of cells, or "events" were analyzed and statistically computed to elicit accuracy of analysis. In addition, as individual cells are analyzed, more subtle changes in fluorescence ligand-cell association can be appreciated. There are some procedures for measuring the actual number of binding sites on cells which combine flow cytometry with steady-state fluorescence (Steinkamp and Kramer 1979) or radiometric assays (Titus et al. 1981), while others employ fluorescent calibration standards (Sklar et al. 1984). […]

[8] = tested on: ^3 H-serotonin uptake by retina; assay: Inhibition of 3H-serotonin uptake in retina (FIG. 5); assay type: cell-based
leukocytes and platelets = assay: Harmaline accumulation in blood cells by spectrophotofluorometry; assay type: cell-based, human
Protocol: as §3, with “receptor.” for “receptor. As the blood cells and platelets both have alpha-2 receptors, the noradrenaline antagonist, yohimbine was chosen to block undesired reactivity with these sites. Cells were incubated for 10 minutes with a 100 μM solution of yohimbine. The cells were then divided into numerous samples which were each exposed to increasing concentrations of harmaline (1 μM to 100 μM concentrations were used) for a period of five minutes each.”
In spectrophotofluorometry (SPF), a volume of labeled cells in suspension are analyzed together, the sum of their emitted fluorescence recorded using a spectrophotofluorometer and compared with other samples with the same concentration of cells. […] This method assumes that the fluorescence emitted from a sum of collected sources (cells) increases proportionally with an individual source. […]

rat retina = assay: Fluorescent harmaline accumulation in perfused living retina; assay type: cell-based
Protocol: One test of the serotonin site ligand, harmaline, is in the neuronal tissue of the rat retina. This tissue is known to contain intracellular serotonin. The serotonergic neurotransmitter system in rat retinal neurons has been previously studied and sites of serotonin accumulation have been identified (Redburn and Churchill 1987) primarily using radiolabelled ^3 H-serotonin (see FIG. 2). According to one test of the invention, it was determined that harmaline accumulated in living rat retina tissue in a specific manner. […] The harmaline present in the OPL begins to dissipate when the stained retina is exposed to sodium-free buffer (see FIG. 3, frame B). Exposure of the stained retina to darkness stimulates harmaline release from the OPL (see FIG. 3, frame C). Further, quantitative evaluation of harmaline accumulation was achieved by measuring the amount of fluorescence given off by harmaline when excited with UV-radiation. A light meter was used to generate data. The light meter gathered light emissions from the eyepiece of an ultraviolet microscope. Harmaline's excitation spectrum is 350-390 nm with emission spectra greatest at 480 and 560 nm in the visible range producing a blue green light. Tissue was placed under a microscope in a sealed perfusion chamber through which oxygenated (95% O2 -5% CO2) buffer flowed. Upon administration of harmaline, data from the light meter was standardized to units of harmaline concentration (using standard curves).

opiate sites = conditions: Muller et al. 1981; cited from earlier work
[9] = tested on: muscarinic cholinergic sites; conditions: Muller et al. 1981; cited from earlier work
benzodiazepine receptor = conditions: Muller et al. 1981; cited from earlier work
monoamine oxidase A = conditions: Fuller et al. 1985; cited from earlier work
serotonin receptors = conditions: Glennon 1981; cited from earlier work
[10] = perfusion concentration 5 μM harmaline

Compound: c1ccc2c3c([nH]c2c1)CNCC3 [1,2,3,4-tetrahydro-beta-carboline]
- IC50 [1]: 6 µM
- IC50 [2]: 9000 µM
- IC50 [3]: 153 µM
- IC50 [4]: 13 µM
- IC50 [5]: 220 µM
- THN concentration at which fluorescent accumulation saturates [6]: approximately 10 μM

Compound: CN(C)CCCN1c2ccccc2CCc2ccccc21 [imipramine]
- Effect on measured harmaline accumulation ([7]; brief incubation with imipramine 25 μM): the measured harmaline accumulation was less
- Inhibition of ^3 H-serotonin uptake by retina [8]: antagonized

Compound: COc1ccc2c(c1)[nH]c1c(C)nccc12 [7-methoxy-1-methyl-beta-carboline]
- IC50 [1]: 27 µM
- IC50 [2]: 200 µM
- IC50 [4]: 700 µM

Compound: 7-methoxy-3,4-dihydro-beta-carboline [harmaline]
- IC50 [1]: 43 µM
- IC50 [3]: 238 µM
- IC50 [4]: 43 µM
- Nature of accumulation in human lymphocytes (leukocytes and platelets; fluorescence measurement): saturable, concentration-dependant phenomena
- EC50 (leukocytes and platelets; yohimbine 100 μM pretreatment, harmaline 1-100 μM, 5 minutes, read-out: EC50 of fluorescent accumulation (spectrophotofluorometry)): 30 µM
- Concentration at which accumulation saturates ([7]; at 5 minutes): 75 to 100 µM
- EC50 ([7]; yohimbine 100 μM pretreatment, harmaline 1-100 μM, 5 minutes, read-out: EC50 of fluorescent accumulation (flow cytometry)): 25 µM
- Accumulation inside versus outside the cell (rat retina): three times greater inside than outside the cell
- Dependence of accumulation in retina (rat retina): sodium dependent, energy dependent
- Harmaline concentration in outer retina relative to control (non-viable) tissue (rat retina; [10]): 3 fold
- Harmaline concentration in outer retina relative to surrounding perfusate (rat retina; [10]): 3 fold
- Inhibition of ^3 H-serotonin uptake by retina [8]: competitively inhibited
- IC50 for opiate sites relative to other sites (opiate sites): about four times lower than for serotonin or dopamine sites; also recorded: about four times higher than found for benzodiazepine antagonism
- IC50 for muscarinic cholinergic sites relative to other sites [9]: about four times lower than for serotonin or dopamine sites; also recorded: about four times higher than found for benzodiazepine antagonism
- Potency at benzodiazepine binding relative to serotonin or dopamine (benzodiazepine receptor): far more potent antagonist of benzodiazepine binding than it is for serotonin or dopamine
- Inhibition of monoamine oxidase A in vivo (monoamine oxidase A): potently inhibit
- Binding affinity for serotonin receptors (serotonin receptors): high binding affinities

Compound: c1ccc2c(c1)[nH]c1cnccc12 [beta-carboline]
- IC50 [1]: 9.1 µM
- IC50 [2]: 75 µM
- IC50 [3]: 335 µM
- IC50 [4]: 80 µM
- IC50 [5]: 100 µM
